# pEC50, pIC50: −log10 of the molar value.
# Key:
# WI-38 NC = test: Senolytic activity, cell viability (PrestoBlue HS), WI-38 NC; format: cell-based; settings: Homo sapiens, 72 h
# Method: WI-38 and HUVEC cells were incubated with increasing concentrations of degraders for 72 h. Cell viability was measured using PrestoBlue HS cell viability reagent.
# [1] = test system: MOLT-4 acute lymphoblastic leukemia cells; test: Cell viability, tetrazolium-based MTS assay, MOLT-4; settings: Homo sapiens, MOLT-4, 48 h; read-out: Anti-Cancer Activity EC50 (48 hr), MOLT-4
# Method: (§1) Acute lymphoblastic leukemia cells (MOLT-4 and RS4;11) were incubated with increasing concentrations of Bcl-xL/Bcl-2 degraders for 48 h. Cell viability was measured by tetrazolium-based MTS assay.
# [2] = test system: RS4;11 acute lymphoblastic leukemia cells; test: Cell viability, tetrazolium-based MTS assay, RS4;11; settings: Homo sapiens, RS4;11, 48 h, read-out: Anti-Cancer Activity EC50 (48 hr), RS4
# Method: as §1
pEC50 [1],pEC50 [2],pIC50 [2],SMILES,pEC50 (WI-38 NC)
> 9.00,8.00 to 9.00,–,"C[C@@]1(CN2CCC(C#Cc3ccc4c(c3)CN(C3CCC(=O)NC3=O)C4=O)CC2)CCC(c2ccc(Cl)cc2)=C(CN2CCN(c3ccc(C(=O)NS(=O)(=O)c4ccc(N[C@H](CCN5CCCOCC5)CSc5ccccc5)c(S(=O)(=O)C(F)(F)F)c4)cc3)CC2)C1 (stereo partly drawn) [Compound 132, N-((4-(((R)-4-(1,4-oxazepan-4-yl)-1-(phenylthio)butan-2-yl)amino)-3-((trifluoromethyl)sulfonyl)phenyl)sulfonyl)-4-(4-(((4R)-4′-chloro-4-((4-((2-(2,6-dioxopiperidin-3-yl)-1-oxoisoindolin-5-yl)ethynyl)piperidin-1-yl)methyl)-4-methyl-3,4,5,6-tetrahydro-[1,1′-biphenyl]-2-yl)methyl)piperazin-1-yl)benzamide]",< 5.00
8.00 to 9.00,7.00 to 8.00,–,"C[C@@]1(CN2CCN(c3ccc(NC4CCC(=O)NC4=O)cc3F)CC2)CCC(c2ccc(Cl)cc2)=C(CN2CCN(c3ccc(C(=O)NS(=O)(=O)c4ccc(N[C@H](CCN5CCCOCC5)CSc5ccccc5)c(S(=O)(=O)C(F)(F)F)c4)cc3)CC2)C1 (stereo partly drawn) [Compound 140, N-((4-(((R)-4-(1,4-oxazepan-4-yl)-1-(phenylthio)butan-2-yl)amino)-3-((trifluoromethyl)sulfonyl)phenyl)sulfonyl)-4-(4-(((4R)-4′-chloro-4-((4-(4-((2,6-dioxopiperidin-3-yl)amino)-2-fluorophenyl)piperazin-1-yl)methyl)-4-methyl-3,4,5,6-tetrahydro-[1,1′-biphenyl]-2-yl)methyl)piperazin-1-yl)benzamide]",–
7.00 to 8.00,7.00 to 8.00,–,"CC1(CN2CCN(c3ccc(OCCCCCN4CCN(c5cccc6c5C(=O)N(C5CCC(=O)NC5=O)C6=O)CC4)cn3)CC2)CCC(c2ccc(Cl)cc2)=C(CN2CCN(c3ccc(C(=O)NS(=O)(=O)c4ccc(N[C@H](CCN5CCOCC5)CSc5ccccc5)c(S(=O)(=O)C(F)(F)F)c4)cc3)CC2)C1 (stereo partly drawn) [Compound 22, 4-(4-((4′-chloro-4-((4-(5-((5-(4-(2-(2,6-dioxopiperidin-3-yl)-1,3-dioxoisoindolin-4-yl)piperazin-1-yl)pentyl)oxy)pyridin-2-yl)piperazin-1-yl)methyl)-4-methyl-3,4,5,6-tetrahydro-[1,1′-biphenyl]-2-yl)methyl)piperazin-1-yl)-N-((4-(((R)-4-morpholino-1-(phenylthio)butan-2-yl)amino)-3-22 ((trifluoromethyl)sulfonyl)phenyl)sulfonyl)benzamide]",–
8.00 to 9.00,7.00 to 8.00,–,"CC1(CN2CCN(c3ncc(C(=O)NCCCCNc4cccc5c4C(=O)N(C4CCC(=O)NC4=O)C5=O)cn3)CC2)CCC(c2ccc(Cl)cc2)=C(CN2CCN(c3ccc(C(=O)NS(=O)(=O)c4ccc(N[C@H](CCN5CCOCC5)CSc5ccccc5)c(S(=O)(=O)C(F)(F)F)c4)cc3)CC2)C1 (stereo partly drawn) [Compound 20, 2-(4-((4′-chloro-4-methyl-6-((4-(4-(((4-(((R)-4-morpholino-1-(phenylthio)butan-2-yl)amino)-3-((trifluoromethyl)sulfonyl)phenyl)sulfonyl)carbamoyl)phenyl)piperazin-1-yl)methyl)-2,3,4,5-tetrahydro-[1,1′-biphenyl]-4-yl)methyl)piperazin-1-yl)-N-(4-((2-(2,6-dioxopiperidin-3-yl)-1,3-dioxoisoindolin-4-yl)amino)butyl)pyrimidine-5-carboxamide]",–
> 9.00,> 9.00,–,"CC1(CN2CCCN(c3ccc4c(c3)CN(C3CCC(=O)NC3=O)C4=O)CC2)CCN(C[C@]2(C)CCC(c3ccc(Cl)cc3)=C(CN3CCN(c4ccc(C(=O)NS(=O)(=O)c5ccc(N[C@H](CCN6CCCOCC6)CSc6ccccc6)c(S(=O)(=O)C(F)(F)F)c5)cc4)CC3)C2)CC1 (stereo partly drawn) [Compound 136, N-((4-(((R)-4-(1,4-oxazepan-4-yl)-1-(phenylthio)butan-2-yl)amino)-3-((trifluoromethyl)sulfonyl)phenyl)sulfonyl)-4-(4-(((4R)-4′-chloro-4-((4-((4-(2-(2,6-dioxopiperidin-3-yl)-1-oxoisoindolin-5-yl)-1,4-diazepan-1-yl)methyl)-4-methylpiperidin-1-yl)methyl)-4-methyl-3,4,5,6-tetrahydro-[1,1′-biphenyl]-2-yl)methyl)piperazin-1-yl)benzamide]",–
8.00 to 9.00,8.00 to 9.00,–,"C[C@@]1(CN2CCC(CN3CCN(c4ccc(C(=O)N[C@@H]5CCC(=O)NC5=O)c(F)c4)CC3)CC2)CCC(c2ccc(Cl)cc2)=C(CN2CCN(c3ccc(C(=O)NS(=O)(=O)c4ccc(N[C@H](CCN5CCCOCC5)CSc5ccccc5)c(S(=O)(=O)C(F)(F)F)c4)cc3)CC2)C1 [Compound 138, 4-(4-((1-(((R)-6-((4-(4-(((4-(((R)-4-(1,4-oxazepan-4-yl)-1-(phenylthio)butan-2-yl)amino)-3-((trifluoromethyl)sulfonyl)phenyl)sulfonyl)carbamoyl)phenyl)piperazin-1-yl)methyl)-4′-chloro-4-methyl-2,3,4,5-tetrahydro-[1,1′-biphenyl]-4-yl)methyl)piperidin-4-yl)methyl)piperazin-1-yl)-N-((R)-2,6-dioxopiperidin-3-yl)-2-fluorobenzamide]",–
8.00 to 9.00,8.00 to 9.00,–,"C[C@@]1(CN2CCC(CN3CCN(c4ccc(C(=O)N[C@H]5CCC(=O)NC5=O)c(F)c4)CC3)CC2)CCC(c2ccc(Cl)cc2)=C(CN2CCN(c3ccc(C(=O)NS(=O)(=O)c4ccc(N[C@H](CCN5CCCOCC5)CSc5ccccc5)c(S(=O)(=O)C(F)(F)F)c4)cc3)CC2)C1 [Compound 137, 4-(4-((1-(((R)-6-((4-(4-(((4-(((R)-4-(1,4-oxazepan-4-yl)-1-(phenylthio)butan-2-yl)amino)-3-((trifluoromethyl)sulfonyl)phenyl)sulfonyl)carbamoyl)phenyl)piperazin-1-yl)methyl)-4′-chloro-4-methyl-2,3,4,5-tetrahydro-[1,1′-biphenyl]-4-yl)methyl)piperidin-4-yl)methyl)piperazin-1-yl)-N-((S)-2,6-dioxopiperidin-3-yl)-2-fluorobenzamide]",–
7.00 to 8.00,–,4.00 to 5.00,"CC1(CN2CCN(c3ncc(C(=O)NCCCCCCNc4cccc5c4C(=O)N(C4CCC(=O)NC4=O)C5=O)cn3)CC2)CCC(c2ccc(Cl)cc2)=C(CN2CCN(c3ccc(C(=O)NS(=O)(=O)c4ccc(N[C@H](CCN5CCOCC5)CSc5ccccc5)c(S(=O)(=O)C(F)(F)F)c4)cc3)CC2)C1 (stereo partly drawn) [Compound 21, 2-(4-((4′-chloro-4-methyl-6-((4-(4-(((4-(((R)-4-morpholino-1-(phenylthio)butan-2-yl)amino)-3-((trifluoromethyl)sulfonyl)phenyl)sulfonyl)carbamoyl)phenyl)piperazin-1-yl)methyl)-2,3,4,5-tetrahydro-[1,1′-biphenyl]-4-yl)methyl)piperazin-1-yl)-N-(6-((2-(2,6-dioxopiperidin-3-yl)-1,3-dioxoisoindolin-4-yl)amino)hexyl)pyrimidine-5-carboxamide]",–
8.00 to 9.00,7.00 to 8.00,–,"CC1(CN2CCN(c3ncc(C(=O)NCCNc4cccc5c4C(=O)N(C4CCC(=O)NC4=O)C5=O)cn3)CC2)CCC(c2ccc(Cl)cc2)=C(CN2CCN(c3ccc(C(=O)NS(=O)(=O)c4ccc(N[C@H](CCN5CCOCC5)CSc5ccccc5)c(S(=O)(=O)C(F)(F)F)c4)cc3)CC2)C1 (stereo partly drawn) [Compound 19, 2-(4-((4′-chloro-4-methyl-6-((4-(4-(((4-(((R)-4-morpholino-1-(phenylthio)butan-2-yl)amino)-3-((trifluoromethyl)sulfonyl)phenyl)sulfonyl)carbamoyl)phenyl)piperazin-1-yl)methyl)-2,3,4,5-tetrahydro-[1,1′-biphenyl]-4-yl)methyl)piperazin-1-yl)-N-(2-((2-(2,6-dioxopiperidin-3-yl)-1,3-dioxoisoindolin-4-yl)amino)ethyl)pyrimidine-5-carboxamide]",–
8.00 to 9.00,8.00 to 9.00,–,"C[C@@]1(CN2CCC(CN3CCN(c4ccc(C(=O)N[C@H]5CCC(=O)NC5=O)cc4)CC3)CC2)CCC(c2ccc(Cl)cc2)=C(CN2CCN(c3ccc(C(=O)NS(=O)(=O)c4ccc(N[C@H](CCN5CCCOCC5)CSc5ccccc5)c(S(=O)(=O)C(F)(F)F)c4)cc3)CC2)C1 [Compound 139, N-((4-(((R)-4-(1,4-oxazepan-4-yl)-1-(phenylthio)butan-2-yl)amino)-3-((trifluoromethyl)sulfonyl)phenyl)sulfonyl)-4-(4-(((R)-4′-chloro-4-((4-((4-(4-(((S)-2,6-dioxopiperidin-3-yl)carbamoyl)phenyl)piperazin-1-yl)methyl)piperidin-1-yl)methyl)-4-methyl-3,4,5,6-tetrahydro-[1,1′-biphenyl]-2-yl)methyl)piperazin-1-yl)benzamide]",–
4.00 to 5.00,7.00 to 8.00,–,"CC1(CN2CCN(c3ccc(C#CCCCN4CCN(c5cccc6c5C(=O)N(C5CCC(=O)NC5=O)C6=O)CC4)cn3)CC2)CCC(c2ccc(Cl)cc2)=C(CN2CCN(c3ccc(C(=O)NS(=O)(=O)c4ccc(N[C@H](CCN5CCOCC5)CSc5ccccc5)c(S(=O)(=O)C(F)(F)F)c4)cc3)CC2)C1 (stereo partly drawn) [Compound 23, 4-(4-((4′-chloro-4-((4-(5-(5-(4-(2-(2,6-dioxopiperidin-3-yl)-1,3-26 dioxoisoindolin-4-yl)piperazin-1-yl)pent-1-yn-1-yl)pyridin-2-yl)piperazin-1-yl)methyl)-4-methyl-3,4,5,6-tetrahydro-[1,1′-biphenyl]-2-yl)methyl)piperazin-1-yl)-N-((4-(((R)-4-morpholino-1-(phenylthio)butan-2-yl)amino)-3-28 ((trifluoromethyl)sulfonyl)phenyl)sulfonyl)benzamide]",–

# — patent publication US20260355323A1, “CEREBLON-RECRUITING BCL-XL/BCL-2 DUAL DEGRADERS” (University of Florida Research Foundation, Incorporated, priority 2022, published 2026)
